Tests used:
wheat (winter wheat) = assay: Test C pre-/postemergence herbicide test; format: in vivo, Triticum aestivum
Procedure, shortened: (§1)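 Response scores range from 0, meaning no effect, to 100, meaning complete control, assigned visually by comparison with controls roughly two weeks (13 to 15 days) after spraying. Applications were made preemergence to seeded loam–sand soil and postemergence to 1- to 4-leaf plants.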

rice [1] = assay: Test B flooded paddy test; format: in vivo, Oryza sativa; conditions: 500 g ai/ha, Flood; scale of 0 to 100 where 0 is no effect and 100 is complete control
Procedure, shortened: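 Treatment was made at the 2-leaf stage by dosing the standing floodwater, kept 3 cm above soil level for the whole test. Greenhouse exposure lasted 13 to 15 days. Response is a visual percent rating relative to controls, where a dash indicates no test result.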

pigweed = assay: Test C pre-/postemergence herbicide test; format: in vivo, Amaranthus retroflexus
Procedure, shortened: as §1

foxtail, giant = assay: Test C pre-/postemergence herbicide test; format: in vivo, Setaria faberii
Procedure, shortened: as §1

wheat = assay: Test A pre-/postemergence herbicide test; format: in vivo, Triticum aestivum; conditions: Postemergence
Procedure, shortened: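 Scoring was visual, relative to untreated controls, on a 0–100 scale after about 10 greenhouse days. Preemergence treatment used a directed soil spray over seeded loam/sand; postemergence treatment targeted one- to two-leaf plants of 2–10 cm.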

galium = assay: Test C pre-/postemergence herbicide test; format: in vivo, Galium aparine
Source text: Seeds of plant species selected from blackgrass (Alopecurus myosuroides), ryegrass, Italian (Italian ryegrass, Lolium multiflorum), wheat (winter wheat, Triticum aestivum), galium (catchweed bedstraw, Galium aparine), corn (Zea mays), crabgrass, large (large crabgrass, Digitaria sanguinalis), foxtail, giant (giant foxtail, Setaria faberii), johnsongrass (Sorghum halepense), lambsquarters (Chenopodium album), morningglory (Ipomoea coccinea), nutsedge, yellow (yellow nutsedge, Cyperus esculentus), pigweed (Amaranthus retroflexus), ragweed (common ragweed, Ambrosia elatior), soybean (Glycine max), barnyardgrass (Echinochloa crus-galli), oilseed rape (Brassica napus), waterhemp (common waterhemp, Amaranthus rudis), kochia (Kochia scoparia), oat, wild (wild oat, Avena fatua), surinam grass (Brachiaria decumbens), foxtail, green (green foxtail, Setaria viridis), goosegrass (Eleusine indica), bromegrass, downy (downy bromegrass, Bromus tectorum), nightshade (eastern black nightshade, Solanum ptycanthum), cocklebur (common cocklebur, Xanthium strumarium), cupgrass, woolly (woolly cupgrass, Eriochloa villosa), bermudagrass (Cynodon dactylon), sunflower, (common oilseed sunflower, Helianthus annuus), Russian thistle (Salsola kali) and velvetleaf (Abutilon theophrasti) were planted into a blend of loam soil and sand and treated preemergence with test chemicals formulated in a non-phytotoxic solvent mixture which included a surfactant. At the same time, plants selected from these crop and weed species and also barley (winter barley, Hordeum vulgare), […]), chickweed (common chickweed, Stellaria media), deadnettle (henbit deadnettle, Lamium amplexicaule), and canarygrass (littleseed canarygrass, Phalaris minor) were planted in pots containing Redi-Earth® planting medium (Scotts Company, 14111 Scottslawn Road, Marysville, Ohio 43041) comprising spaghnum peat moss, vermiculite, wetting agent and starter nutrients and treated with postemergence applications of test chemicals formulated in the same manner. Plants ranged in height from 2 to 18 cm (1- to 4-leaf stage) for postemergence treatments. Treated plants and controls were maintained in a greenhouse for 13 to 15 days, after which time all species were compared to controls and visually evaluated. Plant response ratings, summarized in Table C, are based on a scale of 0 to 100 where 0 is no effect and 100 is complete control. A dash (-) response means no test result.

rice [2] = assay: Test C flooded paddy test; format: in vivo, Oryza sativa; conditions: Flood
Procedure, shortened: (§2)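 Plants at the 2-leaf stage in pots flooded to 3 cm were treated by applying compound directly to the paddy water, with depth held throughout. After 13 to 15 days in a greenhouse, response was rated visually against controls on a 0 (no effect) to 100 (complete control) scale.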

sedge, umbrella = assay: Test C flooded paddy test; format: in vivo, Cyperus difformis; conditions: Flood
Procedure, shortened: as §2

[3] = Postemergence, 31 g ai/ha, scale 0 to 100 (0 no effect, 100 complete control)
[4] = Postemergence, 62 g ai/ha, scale 0 (no effect) to 100 (complete control)
[5] = Postemergence, 125 g ai/ha, scale 0 to 100 (0 no effect, 100 complete control)
[6] = Postemergence, 250 g ai/ha, scale 0 to 100 (0 no effect, 100 complete control)
[7] = Preemergence, 62 g ai/ha, scale 0 to 100 (0 no effect, 100 complete control)
[8] = Preemergence, 125 g ai/ha, scale 0 to 100
[9] = Preemergence, 31 g ai/ha, scale 0 to 100, 0 is no effect and 100 is complete control
[10] = Preemergence, 125 g ai/ha, scale 0 to 100 (0 no effect, 100 complete control)
[11] = 125 g ai/ha, scale of 0 to 100 where 0 is no effect and 100 is complete control, 13 to 15 days
[12] = 250 g ai/ha, scale of 0 to 100 where 0 is no effect and 100 is complete control, 13 to 15 days
[13] = 125 g ai/ha, 0 to 100 scale, 0 is no effect, 100 is complete control

O=C1NCC(c2cccc(C(F)(F)F)c2)C1C(=O)Nc1cccc(Cl)c1F (stereo not shown) [Compound 316]
Plant response rating, Wheat (wheat (winter wheat); [3]): 0
Plant response rating, Wheat (wheat (winter wheat); [4]): 0
Plant response rating, Wheat (wheat (winter wheat); [5]): 0
Plant response rating, Wheat (wheat (winter wheat); [6]): 0
Wheat plant response rating (wheat (winter wheat); [7]): 5
Plant response rating, Wheat (wheat (winter wheat); [8]): 40
Plant response rating, Rice (rice [1]): 0
Plant response rating, Pigweed (pigweed; [3]): 15
Plant response rating, Pigweed (pigweed; [4]): 50
Plant response rating, Pigweed (pigweed; [5]): 60
Plant response rating, Pigweed (pigweed; [6]): 75
Pigweed plant response rating (pigweed; [9]): 25
Pigweed plant response rating (pigweed; [7]): 25
Plant response rating, Pigweed (pigweed; [8]): 45
Plant response rating, Foxtail, Giant (foxtail, giant; [3]): 5
Plant response rating, Foxtail, Giant (foxtail, giant; [4]): 5
Plant response rating, Foxtail, Giant (foxtail, giant; [5]): 85
Plant response rating, Foxtail, Giant (foxtail, giant; [6]): 85
Foxtail, Giant plant response rating (foxtail, giant; [9]): 85
Foxtail, Giant plant response rating (foxtail, giant; [7]): 90
Plant response rating, Foxtail, Giant (foxtail, giant; [8]): 90
Plant response rating (scale of 0 to 100), Foxtail, Giant (foxtail, giant; Preemergence, 250 g ai/ha): 95
Plant response rating, Wheat (wheat; 125 g ai/ha, visual rating on 0 to 100 scale (0 no effect, 100 complete control), approx. 10 days): 20
Plant response rating, Wheat (wheat; 500 g ai/ha, 0 to 100 scale (0 no effect, 100 complete control)): 40
Galium plant response rating (galium; [9]): 0
Galium plant response rating (galium; [7]): 0
Plant response rating, Galium (galium; [8]): 0
Plant response rating (scale of 0 to 100), Galium (galium; Preemergence, 250 g ai/ha): 90

O=C1NCC(c2cccc(C(F)(F)F)c2)C1C(=O)Nc1ccc(F)cc1F (racemic) [Compound 207]
Plant response rating, Wheat (wheat (winter wheat); [3]): 0
Plant response rating, Wheat (wheat (winter wheat); [4]): 0
Plant response rating, Wheat (wheat (winter wheat); [5]): 0
Plant response rating, Wheat (wheat (winter wheat); [6]): 0
Wheat plant response rating (wheat (winter wheat); [9]): 0
Wheat plant response rating (wheat (winter wheat); [7]): 0
Plant response rating, Wheat (wheat (winter wheat); [10]): 5
Plant response rating (scale of 0 to 100), Wheat (wheat (winter wheat); Preemergence, 250 g ai/ha): 45
Plant response rating, Pigweed (pigweed; [3]): 0
Plant response rating, Pigweed (pigweed; [4]): 10
Plant response rating, Pigweed (pigweed; [5]): 10
Plant response rating, Pigweed (pigweed; [6]): 20
Pigweed plant response rating (pigweed; [9]): 0
Pigweed plant response rating (pigweed; [7]): 0
Plant response rating, Pigweed (pigweed; [10]): 0
Plant response rating (scale of 0 to 100), Pigweed (pigweed; Preemergence, 250 g ai/ha): 0
Plant response rating, Rice (rice [2]; [11]): 15
Plant response rating, Rice (rice [2]; [12]): 15
Plant response rating, Rice (rice [2]; 500 g ai/ha, scale 0 to 100): 15
Plant response rating, Rice (rice [2]; 1000 g ai/ha, scale 0 to 100): 15
Plant response rating, Sedge, Umbrella (sedge, umbrella; [11]): 0
Plant response rating, Sedge, Umbrella (sedge, umbrella; [12]): 0
Plant response rating, Sedge, Umbrella (sedge, umbrella; 500 g ai/ha, scale 0 to 100): 0
Plant response rating, Sedge, Umbrella (sedge, umbrella; 1000 g ai/ha, scale 0 to 100): 0
Plant response rating, Foxtail, Giant (foxtail, giant; [3]): 20
Plant response rating, Foxtail, Giant (foxtail, giant; [4]): 0
Plant response rating, Foxtail, Giant (foxtail, giant; [5]): 65
Plant response rating, Foxtail, Giant (foxtail, giant; [6]): 75
Foxtail, Giant plant response rating (foxtail, giant; [9]): 85
Foxtail, Giant plant response rating (foxtail, giant; [7]): 90
Plant response rating, Foxtail, Giant (foxtail, giant; [10]): 90
Plant response rating (scale of 0 to 100), Foxtail, Giant (foxtail, giant; Preemergence, 250 g ai/ha): 98
Plant response rating, Wheat (wheat; [13]): 0
Wheat plant response rating (0 to 100 scale, 0 is no effect, 100 is complete control) (wheat; 500 g ai/ha): 60
Plant response rating, Galium (galium; [3]): 0
Plant response rating, Galium (galium; [4]): 0
Plant response rating, Galium (galium; [5]): 0
Plant response rating, Galium (galium; [6]): 50
Galium plant response rating (galium; [9]): 0
Galium plant response rating (galium; [7]): 0
Plant response rating, Galium (galium; [10]): 85
Plant response rating (scale of 0 to 100), Galium (galium; Preemergence, 250 g ai/ha): 90

O=C1NCC(c2cccc(C(F)F)c2)C1C(=O)Nc1cccc(F)c1F (racemic) [Compound 211]
Wheat plant response rating (wheat (winter wheat); [9]): 0
Wheat plant response rating (wheat (winter wheat); [7]): 0
Plant response rating, Wheat (wheat (winter wheat); [10]): 30
Plant response rating (scale of 0 to 100), Wheat (wheat (winter wheat); Preemergence, 250 g ai/ha): 45
Pigweed plant response rating (pigweed; [7]): 0
Plant response rating, Pigweed (pigweed; [10]): 0
Plant response rating (scale of 0 to 100), Pigweed (pigweed; Preemergence, 250 g ai/ha): 70
Plant response rating, Rice (rice [2]; [11]): 0
Plant response rating, Rice (rice [2]; [12]): 0
Plant response rating, Rice (rice [2]; 500 g ai/ha, scale 0 to 100): 15
Plant response rating, Rice (rice [2]; 1000 g ai/ha, scale 0 to 100): 15
Plant response rating, Sedge, Umbrella (sedge, umbrella; [11]): 0
Plant response rating, Sedge, Umbrella (sedge, umbrella; [12]): 0
Plant response rating, Sedge, Umbrella (sedge, umbrella; 500 g ai/ha, scale 0 to 100): 0
Plant response rating, Sedge, Umbrella (sedge, umbrella; 1000 g ai/ha, scale 0 to 100): 30
Foxtail, Giant plant response rating (foxtail, giant; [9]): 0
Foxtail, Giant plant response rating (foxtail, giant; [7]): 70
Plant response rating, Foxtail, Giant (foxtail, giant; [10]): 90
Plant response rating (scale of 0 to 100), Foxtail, Giant (foxtail, giant; Preemergence, 250 g ai/ha): 95
Plant response rating, Wheat (wheat; [13]): 30
Wheat plant response rating (0 to 100 scale, 0 is no effect, 100 is complete control) (wheat; 500 g ai/ha): 80
Galium plant response rating (galium; [7]): 5
Plant response rating, Galium (galium; [10]): 85
Plant response rating (scale of 0 to 100), Galium (galium; Preemergence, 250 g ai/ha): 100

Source: patent US10294202B2, “Pyrrolidinones as herbicides” (FMC Corporation, priority 2013, dated 2019)
